Among the test systems are CAKI-1 renal; CCRF-CEM leukemia; DU-145 prostate; HCC-2998 colon; HCT-15 colon; HL-60(TB) leukemia; IGROV1 ovarian; K-562 leukemia; MDA-N; NCI-H226 lung; OVCAR-4 ovarian; PC-3 prostate; RXF 393 renal; SK-MEL-5 melanoma; SNB-19 CNS; SW-620 colon; TK-10 renal; U251 CNS; HOP-92 NSCLC; SR leukemia.
What all share (assay): NCI tumour cell line growth inhibition, 48 h

Molecules are shown by their SMILES.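 Values below derive from 48-hour exposures of cells grown in 96-well plates, with endpoints linearly interpolated between the two concentrations bracketing the appropriate inhibition level. TGI marks complete inhibition of growth.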 Some results are limits rather than exact numbers.

With `Cc1cc2c(cc1Cl)SC(NN(C)C)=NS2(=O)=O`, the TGI with CAKI-1 renal, in the experiment with CCRF-CEM leukemia, in the experiment on DU-145 prostate, with HCC-2998 colon, in the experiment with HCT-15 colon and in the experiment on HL-60(TB) leukemia was greater than 10 µM throughout. Further, the TGI in the experiment with IGROV1 ovarian, in the experiment on K-562 leukemia, in the experiment on MDA-N, with NCI-H226 lung, with OVCAR-4 ovarian and in the experiment with PC-3 prostate was greater than 10 µM each time. Further, the TGI with RXF 393 renal, in the experiment with SK-MEL-5 melanoma, with SNB-19 CNS, in the experiment with SW-620 colon, in the experiment on TK-10 renal and in the experiment on U251 CNS was greater than 10 µM each time.
Take `CCN(CC)CCC(=O)c1ccc(Oc2ccc(C)cc2)cc1`: the TGI stood at 31.1 µM in the experiment on CAKI-1 renal; 89.7 µM in the experiment on CCRF-CEM leukemia; 95.3 µM in the experiment on DU-145 prostate; 36.2 µM in the experiment with HCC-2998 colon; 33.8 µM in the experiment on HCT-15 colon; 39.3 µM with HOP-92 NSCLC. The TGI is 35.7 µM in the experiment on IGROV1 ovarian; greater than 100 µM in the experiment with K-562 leukemia; 31.5 µM in the experiment with MDA-N; 86.8 µM in the experiment with NCI-H226 lung; 55.3 µM in the experiment with OVCAR-4 ovarian; 38.2 µM with PC-3 prostate. Further, the TGI with RXF 393 renal is 30.2 µM; with SNB-19 CNS, 33.3 µM; with SR leukemia, greater than 100 µM; with SW-620 colon, 33.8 µM; in the experiment on TK-10 renal, 32.5 µM; in the experiment with U251 CNS it was 30.7 µM.
Take `Cn1ccnc1SC(F)(F)c1nc2ccccc2o1`: the TGI in the experiment with CAKI-1 renal, in the experiment on CCRF-CEM leukemia, in the experiment with DU-145 prostate, with HCC-2998 colon, with HCT-15 colon and with HOP-92 NSCLC was greater than 100 µM throughout. The TGI in the experiment with IGROV1 ovarian, in the experiment on K-562 leukemia, in the experiment on MDA-N, in the experiment on NCI-H226 lung, with OVCAR-4 ovarian and in the experiment with PC-3 prostate was greater than 100 µM each time. The TGI with RXF 393 renal, in the experiment on SK-MEL-5 melanoma, with SW-620 colon, in the experiment with TK-10 renal and with U251 CNS was greater than 100 µM in each case.
Turning to `CN(C)S(=O)(=O)n1ccnc1`, the TGI in the experiment on CAKI-1 renal, in the experiment with HCC-2998 colon, in the experiment with HCT-15 colon, with HOP-92 NSCLC, in the experiment on IGROV1 ovarian and with K-562 leukemia was greater than 100 µM in each case. Besides, the TGI in the experiment with MDA-N, with NCI-H226 lung, in the experiment with OVCAR-4 ovarian, in the experiment on PC-3 prostate, with RXF 393 renal and in the experiment on SK-MEL-5 melanoma was greater than 100 µM each time. Also, the TGI in the experiment with SNB-19 CNS, in the experiment on SW-620 colon, in the experiment on TK-10 renal and in the experiment on U251 CNS was greater than 100 µM throughout.
Turning to `CC(C)N(CCCNc1c2ccccc2nc2cccc([N+](=O)[O-])c12)C(C)C`, the TGI is 0.593 µM in the experiment on CAKI-1 renal; 0.0806 µM in the experiment with CCRF-CEM leukemia; less than 0.01 µM in the experiment with DU-145 prostate; less than 0.01 µM in the experiment with HCC-2998 colon; 0.012 µM in the experiment with HCT-15 colon; less than 0.01 µM in the experiment with HOP-92 NSCLC. Also, the TGI in the experiment on K-562 leukemia is 62.3 µM; in the experiment with MDA-N it was less than 0.01 µM; in the experiment on NCI-H226 lung it was 0.325 µM; in the experiment on OVCAR-4 ovarian, 0.103 µM; in the experiment with PC-3 prostate, 0.527 µM; with RXF 393 renal, 0.0377 µM. Besides, the TGI with SK-MEL-5 melanoma was less than 0.0156 µM; in the experiment on SNB-19 CNS, 0.121 µM; with SR leukemia, 11.8 µM; in the experiment with SW-620 colon it was less than 0.0397 µM; with U251 CNS it was less than 0.0365 µM.
`COc1cccc(N=N/C(=N/NC(=O)c2cc(Cl)ccc2O)c2ccc(N(CCC#N)CCC#N)cc2C)c1`: the TGI was greater than 100 µM in the experiment with CAKI-1 renal; greater than 100 µM in the experiment with CCRF-CEM leukemia; greater than 100 µM in the experiment with DU-145 prostate; 92 µM with HCC-2998 colon; greater than 100 µM in the experiment on HCT-15 colon; greater than 100 µM in the experiment with IGROV1 ovarian. Also, the TGI in the experiment with K-562 leukemia, with MDA-N, in the experiment on NCI-H226 lung, with OVCAR-4 ovarian, in the experiment with PC-3 prostate and in the experiment on RXF 393 renal was greater than 100 µM throughout. Further, the TGI in the experiment on SK-MEL-5 melanoma, in the experiment with SNB-19 CNS, in the experiment on SR leukemia, in the experiment with TK-10 renal and in the experiment on U251 CNS was greater than 100 µM in each case.
On to `C/C(=N\N=C(\N)OB(F)F)c1ccccn1`, for which the TGI in the experiment on CAKI-1 renal was greater than 100 µM; with CCRF-CEM leukemia it was 73.1 µM; in the experiment with DU-145 prostate, greater than 100 µM; in the experiment with HCC-2998 colon, greater than 100 µM; in the experiment on HCT-15 colon it was greater than 100 µM; with HL-60(TB) leukemia it was greater than 100 µM. In addition, the TGI was 85.7 µM in the experiment on HOP-92 NSCLC; greater than 100 µM with IGROV1 ovarian; greater than 100 µM in the experiment with K-562 leukemia; greater than 100 µM with MDA-N; greater than 100 µM with NCI-H226 lung; greater than 100 µM with OVCAR-4 ovarian. Moreover, the TGI in the experiment with RXF 393 renal is 42.6 µM; in the experiment with SK-MEL-5 melanoma, greater than 100 µM; in the experiment with SNB-19 CNS it was greater than 100 µM; with SR leukemia, greater than 100 µM; in the experiment on SW-620 colon, greater than 100 µM; with TK-10 renal, greater than 100 µM. The TGI in the experiment on U251 CNS is greater than 100 µM.
On to `CCOC(=O)C(Cc1ccc(OC(=O)c2ccc(OC)cc2OC)cc1)NC(=O)C(F)(F)F` (stereo unspecified), for which the TGI was determined as 75.8 µM in the experiment with CAKI-1 renal; 83.8 µM with CCRF-CEM leukemia; 34.4 µM with DU-145 prostate; 31.2 µM in the experiment with HCC-2998 colon; 43.3 µM in the experiment on HCT-15 colon; 51.1 µM in the experiment with HL-60(TB) leukemia. In addition, the TGI in the experiment on HOP-92 NSCLC was 55.1 µM; in the experiment on IGROV1 ovarian, 41.8 µM; in the experiment with K-562 leukemia, greater than 100 µM; in the experiment with MDA-N it was 49.3 µM; in the experiment with NCI-H226 lung it was greater than 100 µM; in the experiment on OVCAR-4 ovarian, 55.8 µM. Moreover, the TGI with PC-3 prostate is 48.1 µM; in the experiment on RXF 393 renal it was 36.2 µM; in the experiment on SK-MEL-5 melanoma it was greater than 100 µM; in the experiment with SNB-19 CNS it was greater than 100 µM; in the experiment with SW-620 colon it was greater than 100 µM; in the experiment with TK-10 renal, 42.7 µM. This compound displayed a TGI with U251 CNS greater than 100 µM.

The values above are taken from PubChem BioAssay (NCI).
